Results as given in patent US12043602B2, “Fendiline derivatives” (The Board of Regents of the University of Texas System, priority 2019, dated 2024).

What was measured:
[1] = test system: MDCK cells co-expressing GFP-K-RASG12V and mCherry-CAAX; test: Cytotoxicity in mislocalization screen (death of all cells in well); conditions: drug caused death of all cells in well at 30 μM
[2] = molecular target: mGFP-K-RASG12V (Homo sapiens (Human), UniProt P01116, G12V); test: K-Ras mislocalization assay (confocal microscopy, Manders coefficient); assay type: cell-based; design: key to Emax: Manders coefficient: fraction of mCherry-CAAX co-localizing with GFP-K-Ras; conditions: MDCK cells; for IC50: 48 h treatment, read-out: IC50 (μM), KRASG12V mislocalization; for Emax: maximal effect, Manders coefficient, 48 h
Procedure, shortened: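 MDCK cells stably co-expressing mGFP-K-RASG12V and mCherry-CAAX (endomembrane marker) treated with compound or 0.1% DMSO for 48 h, fixed in 4% paraformaldehyde, imaged by confocal microscopy. Mislocalization quantified as the fraction of mCherry-CAAX co-localizing with mGFP-K-RASG12V (Manders coefficient) after 8-bit thresholding.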

IC50 [2] [µM]	Emax [2]	SMILES	Cytotoxic at 30 μM [1]
3.97	0.592	O=S(=O)(c1ccc(F)cc1)N(CC=C(c1ccccc1)c1ccccc1)CCN1CCCC1 [PW277, N-(3,3-diphenylallyl)-4-fluoro-N-(2-(pyrrolidin-1-yl)ethyl)benzenesulfonamide]	Yes
8.85	0.739	Fc1ccc(CN(CC=C(c2ccccc2)c2ccccc2)CCN2CCCC2)cc1 [PW278, N-(4-fluorobenzyl)-3,3-diphenyl-N-(2-(pyrrolidin-1-yl)ethyl)prop-2-en-1-amine]	Yes
3.4	0.608	O=C(Nc1ccc(F)cc1)N(CC=C(c1ccccc1)c1ccccc1)CCN1CCCC1 [PW279, 1-(3,3-diphenylallyl)-3-(4-fluorophenyl)-1-(2-(pyrrolidin-1-yl)ethyl)urea]	Yes
6.03	0.709	O=C(OCc1ccccc1)N(CC=C(c1ccccc1)c1ccccc1)CCN1CCCC1 [PW280, benzyl (3,3-diphenylallyl)(2-(pyrrolidin-1-yl)ethyl)carbamate]	Yes
12.5	0.592	Nc1nccnc1C(=O)N(CC=C(c1ccccc1)c1ccccc1)CCN1CCCC1 [PW282, 3-amino-N-(3,3-diphenylallyl)-N-(2-(pyrrolidin-1-yl)ethyl)pyrazine-2-carboxamide]	No
–	0.324	O=C(c1cc(-c2ccc(Cl)cc2)on1)N(CC=C(c1ccccc1)c1ccccc1)CCN1CCCC1 [PW283, 5-(4-chlorophenyl)-N-(3,3-diphenylallyl)-N-(2-(pyrrolidin-1-yl)ethyl)isoxazole-3-carboxamide]	Yes
–	0.549	O=C(/C=C/c1ccccc1)N(CC=C(c1ccccc1)c1ccccc1)CCN1CCCC1 [PW284, N-(3,3-diphenylallyl)-N-(2-(pyrrolidin-1-yl)ethyl)cinnamamide]	Yes
4.52	0.62	O=C(c1cnc2ccccc2n1)N(CC=C(c1ccccc1)c1ccccc1)CCN1CCCC1 [PW285, N-(3,3-diphenylallyl)-N-(2-(pyrrolidin-1-yl)ethyl)quinoxaline-2-carboxamide]	Yes
6.63	0.801	O=C(c1cc2ccccn2n1)N(CC=C(c1ccccc1)c1ccccc1)CCN1CCCC1 [PW286, N-(3,3-diphenylallyl)-N-(2-(pyrrolidin-1-yl)ethyl)pyrazolo[1,5-a]pyridine-2-carboxamide]	No
3.37	0.83	C(CN(CCN1CCCC1)Cc1cc2cccnc2[nH]1)=C(c1ccccc1)c1ccccc1 [PW293, N-((1H-pyrrolo[2,3-b]pyridin-2-yl)methyl)-3,3-diphenyl-N-(2-(pyrrolidin-1-yl)ethyl)prop-2-en-1-amine]	Yes
2.82	0.801	Brc1cccc(CN(CC=C(c2ccccc2)c2ccccc2)CCN2CCCC2)n1 [PW295, N-((6-bromopyridin-2-yl)methyl)-3,3-diphenyl-N-(2-(pyrrolidin-1-yl)ethyl)prop-2-en-1-amine]	Yes
2.27	0.685	C[C@H](c1ccc(F)cc1)N(CC=C(c1ccccc1)c1ccccc1)CCn1ccc2cccnc21 [PW297, (R)-N-(2-(1H-pyrrolo[2,3-b]pyridin-1-yl)ethyl)-N-(1-(4-fluorophenyl)ethyl)-3,3-diphenylprop-2-en-1-amine]	No
0.654	0.696	Cc1cc(C)n(CCN(CC=C(c2ccccc2)c2ccccc2)[C@H](C)c2ccc(F)cc2)n1 [PW299, (R)-N-(2-(3,5-dimethyl-1H-pyrazol-1-yl)ethyl)-N-(1-(4-fluorophenyl)ethyl)-3,3-diphenylprop-2-en-1-amine]	No
4.13	0.675	C[C@H](c1ccc(F)cc1)N(CC=C(c1ccccc1)c1ccccc1)CCn1cc(CCO)nn1 [PW303, (R)-2-(1-(2-((3,3-diphenylallyl)(1-(4-fluorophenyl)ethyl)amino)ethyl)-1H-1,2,3-triazol-4-yl)ethan-1-ol]	Yes
2.77	0.794	C[C@H](c1ccc(F)cc1)N(CC=C(c1ccccc1)c1ccccc1)CCn1cc(CO)nn1 [PW304, (R)-(1-(2-((3,3-diphenylallyl)(1-(4-fluorophenyl)ethyl)amino)ethyl)-1H-1,2,3-triazol-4-yl)methanol]	No
0.507	0.609	C[C@H](c1ccc(F)cc1)N(CC=C(c1ccccc1)c1ccccc1)CCn1cc(CN)nn1 [PW305, (R)-N-(2-(4-(aminomethyl)-1H-1,2,3-triazol-1-yl)ethyl)-N-(1-(4-fluorophenyl)ethyl)-3,3-diphenylprop-2-en-1-amine]	Yes
3.19	0.666	C[C@H](c1ccc(F)cc1)N(CC=C(c1ccccc1)c1ccccc1)CCn1cc(CN(C)C)nn1 [PW306, (R)-N-(2-(4-((dimethylamino)methyl)-1H-1,2,3-triazol-1-yl)ethyl)-N-(1-(4-fluorophenyl)ethyl)-3,3-diphenylprop-2-en-1-amine]	Yes
–	0.628	COC(=O)c1cn(CCN(CC=C(c2ccccc2)c2ccccc2)[C@H](C)c2ccc(F)cc2)nn1 [PW307, methyl (R)-1-(2-((3,3-diphenylallyl)(1-(4-fluorophenyl)ethyl)amino)ethyl)-1H-1,2,3-triazole-4-carboxylate]	No
3.32	0.721	C[C@H](c1ccc(F)cc1)N(CC=C(c1ccccc1)c1ccccc1)CCn1cc(-c2ccc(F)cc2)nn1 [PW308, (R)-N-(2-(4-(4-fluorophenyl)-1H-1,2,3-triazol-1-yl)ethyl)-N-(1-(4-fluorophenyl)ethyl)-3,3-diphenylprop-2-en-1-amine]	No
–	0.587	C[C@H](c1ccc(F)cc1)N(CCN1CCCC1)C(=O)Nc1ccc(C(F)(F)F)cc1 [PW321, (R)-1-(1-(4-Fluorophenyl)ethyl)-1-(2-(pyrrolidin-1-yl)ethyl)-3-(4-(trifluoromethyl)phenyl)urea]	No
–	0.662	C[C@H](c1ccc(F)cc1)N(CCN1CCCC1)C(=O)c1ccc(C(F)(F)F)cc1 [PW322, (R)-N-(1-(4-Fluorophenyl)ethyl)-N-(2-(pyrrolidin-1-yl)ethyl)-4-(trifluoromethyl)benzamide]	No
2.9	0.767	C[C@H](c1ccc(F)cc1)N(CCN1CCCC1)C(=O)c1cc(-c2ccccc2)ccn1 [PW324, (R)-N-(1-(4-Fluorophenyl)ethyl)-4-phenyl-N-(2-(pyrrolidin-1-yl)ethyl)picolinamide]	No
7.8	0.808	Cc1ccc(C(=CCN(CCN2CCCC2)[C@H](C)c2ccc(F)cc2)c2ccc(C)cc2)cc1 [PW327, (R)-N-(1-(4-Fluorophenyl)ethyl)-N-(2-(pyrrolidin-1-yl)ethyl)-3,3-di-p-tolylprop-2-en-1-amine]	Yes
1.02	0.938	COc1cc(C(=CCN(CCN2CCCC2)[C@H](C)c2ccc(F)cc2)c2cc(OC)c(OC)c(OC)c2)cc(OC)c1OC [PW358, (R)-N-(1-(4-Fluorophenyl)ethyl)-N-(2-(pyrrolidin-1-yl)ethyl)-3,3-bis(3,4,5-trimethoxyphenyl)prop-2-en-1-amine]	Yes

SMILES	IC50 [2] [µM]	Emax [2]	Cytotoxic at 30 μM [1]
COc1ccc(C(=CCN(CCN2CCCC2)[C@H](C)c2ccc(F)cc2)c2ccc(OC)cc2)cc1 [PW356, (R)-N-(1-(4-Fluorophenyl)ethyl)-3,3-bis(4-methoxyphenyl)-N-(2-(pyrrolidin-1-yl)ethyl)prop-2-en-1-amine]	2.44	0.641	Yes at 10 uM
COc1cccc(C(=CCN(CCN2CCCC2)[C@H](C)c2ccc(F)cc2)c2cccc(OC)c2)c1 [PW357, (R)-N-(1-(4-Fluorophenyl)ethyl)-3,3-bis(3-methoxyphenyl)-N-(2-(pyrrolidin-1-yl)ethyl)prop-2-en-1-amine]	–	0.497	Yes at 10 uM
C[C@H](c1ccc(F)cc1)N(C/C=C(/c1ccccc1)c1ccc(OC(F)(F)F)cc1)CCN1CCCC1 [PW361, (R,Z)-N-(1-(4-fluorophenyl)ethyl)-3-phenyl-N-(2-(pyrrolidin-1-yl)ethyl)-3-(4-(trifluoromethoxy)phenyl)prop-2-en-1-amine]	0.725	0.606	Yes at 3 uM
COc1ccc(/C(=C\CN(CCN2CCCC2)[C@H](C)c2ccc(F)cc2)c2ccc(F)cc2)cc1 [PW454, (R,E)-3-(4-fluorophenyl)-N-(1-(4-fluorophenyl)ethyl)-3-(4-methoxyphenyl)-N-(2-(pyrrolidin-1-yl)ethyl)prop-2-en-1-amine]	0.319	0.771	Yes at 10 uM
C[C@H](c1ccc(F)cc1)N(C/C=C(/c1ccc(F)cc1)c1ccc(C(F)(F)F)cc1)CCN1CCCC1 [PW455, (R,E)-3-(4-fluorophenyl)-N-(1-(4-fluorophenyl)ethyl)-N-(2-(pyrrolidin-1-yl)ethyl)-3-(4-(trifluoromethyl)phenyl)prop-2-en-1-amine]	1.86	0.821	Yes at 10 uM
